The data set is described as follows: Hygroscopic nature of the HCl salts. It is filed as physicochemical. As for the experimental part:
To a solution of N-methyl-bicyclic compound (2) (10 mmole) in dry THF (100-150ml) was added a large excess of LiAlH4 (30 mmole), and the mixture was refluxed for about 24 hr. The reaction mixture was quenched with […]. NH4 Cl, and filtered. The contents of the funnel were washed with 100ml of CHCl3 twice and the combined filtrate of THF and CHCl3 was evaporated to dryness under reduced pressure. The residue was dissolved in ether (100 ml), and the hydrochloride salt was made by addition of ethanol--HCl and removal of organic solvent under reduced pressure.
To a solution of N-acyl-bicyclic compound (3) (10 mmole) in dry tetrahydrofuran (THF) (100-150ml) was added a large excess of LiAlH4 (50 mmole), and the mixture was refluxed for about 24 hr. The reaction mixture was quenched with satd. NH4 Cl, and filtered. The contents of the funnel were washed with 100 ml of CHCl3 twice and the combined filtrate of THF and CHCl3 was evaporated to dryness under reduced pressure. Water was added (100 ml), and the pH was adjusted to 3.0 with concentrated HCl. The mixture was extracted with diethyl ether (80 ml/extraction) to remove ether soluble impurities. These ether solutions were discarded. The pH was then adjusted to 8.0 and extracted with fresh ether. These ether solutions were dried (Na2 SO4), filtered and evaporated under reduced pressure. […]

Read-outs that look alike come from different tables or passages of the source.

Consider 1 compound from US5496533A, “Rhenium complexes” (Australian Nuclear Science & Technology Organisation, priority 1992, dated 1996).

On to `CN(CCNCC(C)(C)S)CC(C)(C)S` [N-methyl compound (4), 2,2,9,9-pentamethyl-4-N-methyl-4,7-diaza-1,10-decanedithiol], for which the “hygroscopic nature of HCl salts” value is reported as “very hygroscopic”. The “hygroscopic nature of HCl salts” value (listed as 4(N--Me)) is reported as “strong hygroscopic nature”.
